Assay results: ChEMBL document CHEMBL1147389, “Two bioactive pterocarpans from Erythrina burana” (J Nat Prod, 1993)

Experiments:
Saccharomyces cerevisiae [1] = experiment: DNA damaging activity against RS322 YK rad52 DNA repair gene deficient Saccharomyces cerevisiae mutant assessed as drug level required to produce 12 mm zone of inhibition after 48 hrs; type: functional
Saccharomyces cerevisiae [2] = experiment: DNA damaging activity against RS167 N rad6 DNA repair gene deficient Saccharomyces cerevisiae mutant assessed as drug level required to produce 12 mm zone of inhibition after 48 hrs; type: functional
Saccharomyces cerevisiae [3] = experiment: DNA damaging activity against RS321 […] DNA repair gene deficient Saccharomyces cerevisiae mutant assessed as drug level required to produce 12 mm zone of inhibition after 48 hrs; type: functional
Saccharomyces cerevisiae [4] = experiment: DNA damaging activity against RS188N rad DNA repair gene expressing Saccharomyces cerevisiae assessed as drug level required to produce 12 mm zone of inhibition after 48 hrs; type: functional
P388 = experiment: Cytotoxicity against mouse P388 cells; type: functional, cell-based
CHO [5] = experiment: Cytotoxicity against CHO cells; type: cell-based; settings: Cricetulus griseus
CHO [6] = experiment: Cytotoxicity against p-glycoprotein overexpressing CHO cells; type: cell-based; settings: Cricetulus griseus

Row | Structure (SMILES) | IC12 (Saccharomyces cerevisiae [1]) [µg/mL] | IC12 (Saccharomyces cerevisiae [2]) [µg/mL] | IC12 (Saccharomyces cerevisiae [3]) [µg/mL] | IC12 (Saccharomyces cerevisiae [4]) [µg/mL] | IC50 (P388) [µM] | IC50 (CHO [5]) [µM] | IC50 (CHO [6]) [µM]
1 | COc1ccc2c(c1CC=C(C)C)O[C@H]1c3ccc(O)cc3OC[C@@]21O [ERYTHRABYSSIN I] | 80 | 540 | 108 | 330 | > 10 | > 20 | 4
2 | CC(C)=CCc1c(O)ccc2c1O[C@H]1c3ccc(O)cc3OC[C@@H]21 [PHASEOLLIDIN] | 500 | > 1000 | 400 | 5500 | > 10 | 4 | 7.6
